Measured values from US20210338662A1, “ALPHA-2-ADRENOCEPTOR SUBTYPE C (ALPHA-2C) ANTAGONISTS FOR THE TREATMENT OF SLEEP APNEA” (Bayer Aktiengeseilschaft, priority 2018, published 2021).

System: upper airway collapsibility in anaesthetized, spontaneously breathing pigs
Test: pig model of obstructive sleep apnea (OSA): upper airway collapsibility under negative pressure
Type: in vivo, German Landrace pigs
Conditions: i.v. bolus 1.5 mg/kg then i.v. infusion 0.475 mg/kg/h for four hours
Description: The therapeutic potential of the compounds of formula (I) according to the present invention in sleep apnea has been assessed preclinically in a pig model of obstructive sleep apnea (OSA).
Using negative pressure, it is possible to induce collapse and thus obstruction of the upper respiratory tract in anaesthetized, spontaneously breathing pigs (Wirth K. J. et al., Sleep 36(5) (2013) pp. 699-708).
German Landrace pigs are used for the model. The pigs are anaesthetized and tracheotomized. Two tracheal are inserted into the trachea, one into the rostral part and the other into the caudal part of the trachea. Using a connection piece, the rostral cannula is connected to a tube to the negative pressure device and to the distal tracheal cannula. The distal tracheal cannula is additionally connected to a tube with an open end to atmosphere via a connection piece that served for free tracheal breathing, circumventing the upper airway. By appropriate opening and clamping of those tubes breathing can be switched from nasal breathing to breathing through the caudal tracheal cannula, circumventing the upper airway, and the (isolated) upper airway can be connected to the negative pressure device, causing airflow in the inspiratory direction.
At certain points in time, the collapsibility of the upper respiratory tract is tested by having the pig breathe via the caudal cannula and applying negative pressures of −50, −100 and −150 cm water head (cm H2O) to the upper respiratory tract. This causes the upper respiratory tract to collapse, which manifests itself in an interruption of the airflow and a pressure drop in the tube system. This test is conducted prior to the administration of the test substance and at certain intervals after the administration of the test substance. An appropriately effective test substance can prevent this collapse of the respiratory tract in the inspiratory phase.
FIG. 1: Effect of i.v. bolus injection of 1.5 mg/kg followed by an i.v. infusion of 0.475 mg/kg/h for four hours of the α2-Adrenoceptor subtype C (alpha-2C) antagonists of formula (I) ((S)-1-((2,3-dihydrobenzo[b][1,4]dioxin-2-yl)methyl)-4-(3-(methoxymethyl)pyridin-2-yl)piperazine given at time point 0 min on upper airway collapsibility at different levels of negative pressure. Percentages of pigs with no collapse are given. Mean values.

[1] = all negative pressures of −50, −100 and −150 cm
[2] = time 0 min (time point of administration), mean values

COCc1cccnc1N1CCN(C[C@H]2COc3ccccc3O2)CC1 [(S)-1-((2,3-dihydrobenzo[b][1,4]dioxin-2-yl)methyl)-4-(3-(methoxymethyl)pyridin-2-yl)piperazine]
duration of inhibition of upper airway collapsibility [1]: up to five
effect on upper airway collapsibility [1]: inhibited upper airway collapsibility
Percent pigs without collaps −50 cm H2O [2]: 0%
Percent pigs without collaps −50 cm H2O (time 10 min): 100%
Percent pigs without collaps −50 cm H2O (time 30 min): 100%
Percent pigs without collaps −50 cm H2O (time 60 min): 100%
Percent pigs without collaps −50 cm H2O (time 120 min): 100%
Percent pigs without collaps −50 cm H2O (time 180 min): 100%
Percent pigs without collaps −50 cm H2O (time 240 min): 100%
Percent pigs without collaps −50 cm H2O (time 300 min): 100%
Percent pigs without collaps −50 cm H2O (time 330 min): 100%
Percent pigs without collaps −100 cm H2O [2]: 0%
Percent pigs without collaps −100 cm H2O (time 10 min): 100%
Percent pigs without collaps −100 cm H2O (time 30 min): 100%
Percent pigs without collaps −100 cm H2O (time 60 min): 100%
Percent pigs without collaps −100 cm H2O (time 120 min): 100%
Percent pigs without collaps −100 cm H2O (time 180 min): 100%
Percent pigs without collaps −100 cm H2O (time 240 min): 100%
Percent pigs without collaps −100 cm H2O (time 300 min): 100%
Percent pigs without collaps −100 cm H2O (time 330 min): 100%
Percent pigs without collaps −150 cm H2O [2]: 0%
Percent pigs without collaps −150 cm H2O (time 10 min): 100%
Percent pigs without collaps −150 cm H2O (time 30 min): 100%
Percent pigs without collaps −150 cm H2O (time 60 min): 100%
Percent pigs without collaps −150 cm H2O (time 120 min): 100%
Percent pigs without collaps −150 cm H2O (time 180 min): 100%
Percent pigs without collaps −150 cm H2O (time 240 min): 100%
Percent pigs without collaps −150 cm H2O (time 300 min): 100%
Percent pigs without collaps −150 cm H2O (time 330 min): 100%
